# According to patent publication US20250332392A1, “APPARATUSES AND METHODS FOR TREATMENT OF FEMALE URINARY INCONTINENCE” (THE BOARD OF REGENTS OF THE UNIVERSITY OF TEXAS SYSTEM, priority 2022, published 2025):
# How the values were obtained:
# [1] = system: urinary incontinence (UI) episodes; assay: clinical trial of oral sildenafil in women: UI episodes and side effects; type: in vivo
# Source text: In view of this, the inventors determined to develop a way to administer sildenafil directly to the muscles and structures of the pelvic floor using an intravaginal apparatus. Disclosed in the discussion that follows are example embodiments of intravaginal apparatuses that can be used for treating urinary incontinence.
# [2] = clinical trial pharmacokinetics: plasma and cervicovaginal (CVF) secretion drug concentrations after oral sildenafil; type: in vivo; details: women, oral 20 mg 3 times a day for a month
# Description: A series of pharmacokinetic and safety studies were conducted in both women and sheep.
compound,measurement,setting,value
CCCc1nn(C)c2c(=O)[nH]c(-c3cc(S(=O)(=O)N4CCN(C)CC4)ccc3OCC)nc12 [sildenafil],side effects,[1]; women taking oral sildenafil,"flushing, visual changes, and gastrointestinal changes"
same,number of UI episodes per day,[1]; women taking oral sildenafil (20 mg 3 times a day for a month),decrease
same,dependence of CVF secretion drug concentrations on plasma drug concentrations,[2],not dependent on the plasma drug concentrations
same,CVF secretion drug concentrations compared with plasma drug concentrations,[2]; later timepoints after the last oral dose,higher than the plasma drug concentrations
